The text below walks through data of patent publication US9201062B2, “Predicting toxicity of a compound over a range of concentrations” (CELLOMICS, INC., priority 2011, dated 2015).

The conditions of data set [1]: peak serum concentration of the drug; cited from earlier work.
The test system of data set [2] is Reactive oxygen species (ROS) levels in cells. The source says:
Once imaging has been performed, automated image processing algorithms as are known in the art can be used in the imaging system to determine the measurements in the cell images.
The target i being evaluated was the normalized ROS response.
where μ is the mean of the normalized non-hepatotoxic compound values and σ is the standard deviation of the normalized non-hepatotoxic compound values.
As noted above, for ROS, the upper threshold may be all that is needed. […] The difficulty in compound toxicity measurement because of non-unidirectional response and/or because of incorrect EC50/IC50 calculation from a dose-response curve are avoided by establishing toxicity thresholds based on the negative controls and by flagging a compound as toxic only if its response goes beyond the determined thresholds at any concentration.
For each target, the minimal coefficient K of the deviation value from the mean of the non-hepatotoxic compound data can be calculated to include all the non-hepatotoxic compounds values between μ+K×σ and μ−K×σ values. These values are set respectively as the upper and lower toxicity thresholds for the target. As noted above, for each target both or only one of the thresholds can be used.
(§1) The normalized values from the hepatotoxic compounds (or compounds of interest) are compared with the threshold value determined above. The compound toxicity is determined by verifying whether the normalized value of the compound is outside the threshold value(s). […] Cell loss was determined to be toxic if the normalized value was less than the lower threshold value. Reactive oxygen species level was determined to be toxic if the respective normalized value was greater than the upper threshold value.

For a further data set, the system named is rat primary hepatocytes. Kind of data set: Multiparametric high-content hepatotoxicity prediction assay on rat primary hepatocytes (FIG. 9 decision table). To be noted: 24 hours drug incubation, over concentration range, targets: cell number, DNA content, GSH, ROS, mitochondrial membrane potential.
Description: After drug treatment, the hepatic cells are stained with specific fluorescent materials to detect different cellular targets or properties whose changes are associated with cell health, as is known in the art. For example, in the exemplary embodiments discussed herein, as well as in the test data shown, the following five cellular responses are simultaneously monitored: • 1. Cell number (i.e., cell loss, cell density) • 2. Nuclear DNA content • 3. Reduced glutathione (GSH) levels in cells • 4. Reactive oxygen species (ROS) levels in cells • 5. Mitochondrial membrane potential changes
Otherwise the cell contains a “−”.
This corresponds to the number of target cells corresponding to the compound that contain a “+”.
For maintenance of rat primary hepatocytes, Williams E medium can be used containing the following supplements: 15 mM HEPES, 1% ITS+, 4 mM Glutamax, 0.1 μM dexamethasone, 50 units/ml penicillin and 50 μg/ml streptomycin (Hepatocyte maintenance medium). […]
For each target, the minimal coefficient K of the deviation value from the mean of the non-hepatotoxic compound data can be calculated to include all the non-hepatotoxic compounds values between μ+K×σ and μ−K×σ values. […]
as §1
The images were analyzed, as discussed above, to produce the data shown on FIG. 9. […] After 24 hours of drug incubation, the hepatocytes were stained and imaged on a Thermo Scientific ToxInsight HCS reader. The data for each target were normalized and analyzed based on the threshold calculated from the non-hepatotoxic compounds in the manner discussed above. […]

In another data set the test system is HepG2 cells. The data set can be described thus: High-content imaging of HepG2 cells stained for nuclei, glutathione, ROS and mitochondria (FIG. 11). Format: cell-based. To be noted: 25 Cmax, 24 hrs. As to the method: For routine culture of HepG2 cells, EMEM medium containing the following supplements can be used: 10% fetal bovine serum, 1 mM sodium pyruvate, 1× non-essential amino acids, 100 units/ml penicillin and 100 μg/ml streptomycin (EMEM complete medium).
Cells can be harvested by trypsinization, diluted into EMEM complete medium and cell density was determined. Cells are diluted to 2.0×10^5 cells/ml in EMEM complete medium. 100 μl of the cell suspension are added per well of the 96-well microplate to achieve 20,000 cells/well.
The cells were then stained with specific fluorescent dyes to detect each cellular target. Cell images were then obtained using the ArrayScan VTi Reader manufactured by Cellomics Inc., a subsidiary of Thermo Fisher Scientific Inc. Representative samples 230 of the cell images obtained during the assay are shown in FIG. 11. […] The images of the cells for the different targets look different for the two drugs; Troglitazone reduces the number of cells and mitochondrial membrane potential but […] reduced glutathione levels in HepG2 cells.

Structures can show the parent of a compound that is named as a salt.

Regarding `CC(=O)Oc1ccccc1C(=O)O` [Aspirin], the “1 CMax” value in data set [1] is 0.995 µg/mL. Also, in data set [2], the “normalized ROS response relative to upper and lower toxicity thresholds” value is “between the upper and lower thresholds values”.

Take `CN1CCC(=C2c3ccccc3C=Cc3ccccc32)CC1` [Cyproheptadine HCl]: the “1 CMax” value in data set [1] is 30 µg/mL.

As for `O=C1CN(/N=C/c2ccc(-c3ccc([N+](=O)[O-])cc3)o2)C(O)=N1` [Dantrolene], the “1 CMax” value in data set [1] was 1.24 µg/mL.

Regarding `N#CC(C#N)=NNc1ccc(OC(F)(F)F)cc1` [FCCP], in the data set with rat primary hepatocytes, the “number of targets flagged as being toxic (of five monitored targets)” value (“number of targets flagged as being toxic” for short) is recorded as “Four”.

With `CNCCC(Oc1ccc(C(F)(F)F)cc1)c1ccccc1` (stereo not drawn) [Fluoxetine], the “1 CMax” value in data set [1] is 0.015 µg/mL. Further, the “number of targets flagged as being toxic” value with rat primary hepatocytes is reported as “none”. Moreover, in data set [2], the “normalized ROS response relative to upper and lower toxicity thresholds” value was “between the upper and lower thresholds values”.

In the case of `Cc1ccc(C)c(OCCCC(C)(C)C(=O)O)c1` [Gemfibrozil], the “1 CMax” value in data set [1] is 46.4 µg/mL.

With `CCN(CC)CCNc1ccc(CO)c2sc3ccccc3c(=O)c12` [Hycanthone], the “normalized ROS response relative to upper and lower toxicity thresholds” value in data set [2] is “flagged as being toxic”.

As to `Cc1cccc(Nc2ccccc2C(=O)O)c1C` [Mefenamic Acid], the “1 CMax” value in data set [1] is 6.5 µg/mL. Further, in data set [2], the “normalized ROS response relative to upper and lower toxicity thresholds” value is listed as “flagged as being toxic”.

Turning to `COc1ccc2[nH]cc(CCNC(C)=O)c2c1` [Melatonin], the “1 CMax” value in data set [1] is 0.00557 µg/mL. Moreover, in data set [2], the “normalized ROS response relative to upper and lower toxicity thresholds” value was “between the upper and lower thresholds values”.

As for `CCn1cc(C(=O)O)c(=O)c2ccc(C)nc21` [Nalidixic Acid], the “1 CMax” value in data set [1] is 30 µg/mL.

On to `CO[C@@H]1[C@@H](OC(N)=O)[C@@H](O)[C@H](Oc2ccc3c(O)c(NC(=O)c4ccc(O)c(CC=C(C)C)c4)c(=O)oc3c2C)OC1(C)C` [Novobiocin], for which the “1 CMax” value in data set [1] is 62.5 µg/mL. Besides, in the data set on rat primary hepatocytes, the “number of targets flagged as being toxic” value is on record as “five”. In addition, the “normalized ROS response relative to upper and lower toxicity thresholds” value in data set [2] is “flagged as being toxic”.

Consider `CCCCC1C(=O)N(c2ccccc2)N(c2ccccc2)C1=O` [Phenylbutazone], for which the “1 CMax” value in data set [1] is 150 µg/mL.

For the compound `CN(CCOc1ccc(CC2SC(=O)NC2=O)cc1)c1ccccn1` (stereo not drawn) [Rosiglitazone], the “1 CMax” value in data set [1] is 0.373 µg/mL.

Consider `CN(C)[C@@H]1C(O)=C(C(N)=O)C(=O)[C@@]2(O)C(O)=C3C(=O)c4c(O)cccc4[C@@](C)(O)[C@H]3C[C@@H]12` [Tetracycline], for which the “1 CMax” value in data set [1] is 9.317 µg/mL.

As for `Clc1ccccc1CN1CCc2sccc2C1` [Ticlopidine], the “1 CMax” value in data set [1] was 2.13 µg/mL.

Turning to `O=c1n(CCCN2CCN(c3cccc(Cl)c3)CC2)nc2ccccn12` [Trazodone HCl], the “1 CMax” value in data set [1] was 1.88 µg/mL.

As to `Cc1c(C)c2c(c(C)c1O)CCC(C)(COc1ccc(CC3SC(=O)NC3=O)cc1)O2` (stereo not drawn) [Troglitazone], the “1 CMax” value in data set [1] was 2.82 µg/mL. For the same compound, in the data set with HepG2 cells, the mitochondrial membrane potential entry was “reduces”, the number of cells result is “reduces” and the reduced glutathione levels entry is recorded as “increases”.
